Measurements taken from the supplement of paper PMC10307832.

Each cell line was assayed with CCn1c(-c2nonc2N)nc2c(C#CC(C)(C)O)ncc(OC[C@H]3CCCNC3)c21 + Nc1nc2[nH]cc(CCc3ccc(C(=O)N[C@@H](CCC(=O)O)C(=O)O)cc3)c2c(=O)[nH]1 [Pemetrexed] (partner 0.2 µM) (assay: relative viability (nuclei count vs DMSO), 5 days (fraction); higher = more cells survive). Conditions: first compound 1 µM.
In short: (§1)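 One day after seeding in 1536-well plates, lung cancer cell lines were dosed by pin tool. Dosing was either single-drug or a fixed anchor-drug dose plus five library-drug doses (not always all listed) in √10 steps. After 5 days, nuclei were stained in one fix-and-stain step and counted on 4× images, and relative viability is the nuclei count of treated wells over that of vehicle wells, given as the median of duplicate plates.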

Cell Line	relative viability
201T	0.311
NCI-H1915	0.49
HCC-827	0.267
LXF-289	0.938
NCI-H23	0.611
NCI-H647	0.142
CAL-12T	1.2
NCI-H1651	0.572

What follows are cell lines tested with CCn1c(-c2nonc2N)nc2c(C#CC(C)(C)O)ncc(OC[C@H]3CCCNC3)c21 + COc1cc2c(Oc3ccc(NC(=O)C4(C(=O)Nc5ccc(F)cc5)CC4)cc3F)ccnc2cc1OCCCN1CCOCC1 [Foretinib] (partner 0.25 µM) in the same assay as above. Conditions: first compound 0.01 µM.
In short: as §1

Cell Line	relative viability
COR-L 105	1.01
LOU-NH91	0.929
ChaGo-K-1	0.802
NCI-H2170	0.987
NCI-H2405	1.06
HOP-62	1.08
LU99A	0.797
BEN	0.615
HARA	0.848
HCC-78	0.515
NCI-H322M	0.823
LCLC-97TM1	1.03
NCI-H2009	1.22
A-427	0.978
NCI-H441	1.08
NCI-H1734	0.765
NCI-H460	0.949
NCI-H2347	0.836
SK-LU-1	0.754
NCI-H1395	0.945
201T	1.14
NCI-H1915	1.11
HCC-827	1.02
LXF-289	0.983
NCI-H23	0.971
NCI-H647	1.26
CAL-12T	1.15
NCI-H1651	0.865

Same assay, conditions: first compound 0.03162 µM

Cell Line	relative viability
COR-L 105	1
LOU-NH91	0.962
ChaGo-K-1	0.849
NCI-H2170	1.01
NCI-H2405	1.05
HOP-62	1.13
LU99A	0.797
BEN	0.467
HARA	1.01
HCC-78	0.523
NCI-H322M	0.881
LCLC-97TM1	0.91
NCI-H2009	1.21
A-427	1.23
NCI-H441	0.967
NCI-H1734	0.841
NCI-H460	1.11
NCI-H2347	0.841
SK-LU-1	0.896
NCI-H1395	0.922
NCI-H1915	1.1
HCC-827	1.09
LXF-289	1.05
NCI-H23	1.15
NCI-H647	1.1
CAL-12T	1.05
NCI-H1651	0.807

Same assay, conditions: first compound 0.1 µM

Cell Line	relative viability
COR-L 105	1.04
LOU-NH91	0.964
ChaGo-K-1	0.852
NCI-H2170	0.972
NCI-H2405	0.948
HOP-62	1.08
LU99A	0.814
BEN	0.7
HARA	0.864
HCC-78	0.539
NCI-H322M	0.879
LCLC-97TM1	1.01
NCI-H2009	1.31
A-427	1.1
NCI-H441	0.836
NCI-H1734	0.801
NCI-H460	0.979
SK-LU-1	0.737
NCI-H1395	0.945
201T	1.14
NCI-H1915	1.08
HCC-827	1.01
LXF-289	0.979
NCI-H23	1.06
NCI-H647	1.14
CAL-12T	1.05
NCI-H1651	0.743

Same assay, conditions: first compound 0.3162 µM

Cell Line	relative viability
COR-L 105	1.03
LOU-NH91	0.861
ChaGo-K-1	0.911
NCI-H2170	0.996
NCI-H2405	1.03
HOP-62	0.985
LU99A	0.776
BEN	0.686
HARA	0.833
HCC-78	0.532
NCI-H322M	0.816
LCLC-97TM1	0.877
NCI-H2009	1.22
A-427	0.981
NCI-H441	1.16
NCI-H1734	0.748
NCI-H460	0.978
NCI-H2347	0.798
SK-LU-1	0.816
NCI-H1395	0.871
201T	1.09
NCI-H1915	1.01
HCC-827	1.06
LXF-289	0.952
NCI-H23	0.918
NCI-H647	1.16
CAL-12T	1.05
NCI-H1651	0.521

Same assay, conditions: first compound 1 µM

Cell Line	relative viability
COR-L 105	1.16
LOU-NH91	0.907
ChaGo-K-1	0.896
NCI-H2170	1.07
NCI-H2405	1.05
HOP-62	1.16
LU99A	0.899
BEN	0.683
HARA	0.876
HCC-78	0.527
NCI-H322M	0.911
LCLC-97TM1	0.874
NCI-H2009	1.22
A-427	0.991
